# Data taken from patent US20230279482A1, “COMPOSITIONS, METHODS AND USES FOR QUANTIFYING TRANSCRIPTION AND BIOSENSING OF SMALL MOLECULES USING A NOVEL TYPE VI CRISPR-CAS ASSAY” (THE REGENTS OF THE UNIVERSITY OF COLORADO, A BODY CORPORATE, priority 2020, published 2023).
# Experiments:
# Cas13a = biological target: T1, Cas13a (Leptotrichia wadei, UniProt U2PSH1); assay: SHERLOCK reactions without RNAP at varying sodium fluoride; format: biochemical, Leptotrichia wadeii; settings: FIG. 6A
# T1 construct: His-tag (N, cleaved yes); twinstrep (N, cleaved yes); SUMO (N, cleaved yes); made in house; host or cells: BL21(DE3) Rosetta Escherichia coli
# T1 sequence (U2PSH1 1-1182): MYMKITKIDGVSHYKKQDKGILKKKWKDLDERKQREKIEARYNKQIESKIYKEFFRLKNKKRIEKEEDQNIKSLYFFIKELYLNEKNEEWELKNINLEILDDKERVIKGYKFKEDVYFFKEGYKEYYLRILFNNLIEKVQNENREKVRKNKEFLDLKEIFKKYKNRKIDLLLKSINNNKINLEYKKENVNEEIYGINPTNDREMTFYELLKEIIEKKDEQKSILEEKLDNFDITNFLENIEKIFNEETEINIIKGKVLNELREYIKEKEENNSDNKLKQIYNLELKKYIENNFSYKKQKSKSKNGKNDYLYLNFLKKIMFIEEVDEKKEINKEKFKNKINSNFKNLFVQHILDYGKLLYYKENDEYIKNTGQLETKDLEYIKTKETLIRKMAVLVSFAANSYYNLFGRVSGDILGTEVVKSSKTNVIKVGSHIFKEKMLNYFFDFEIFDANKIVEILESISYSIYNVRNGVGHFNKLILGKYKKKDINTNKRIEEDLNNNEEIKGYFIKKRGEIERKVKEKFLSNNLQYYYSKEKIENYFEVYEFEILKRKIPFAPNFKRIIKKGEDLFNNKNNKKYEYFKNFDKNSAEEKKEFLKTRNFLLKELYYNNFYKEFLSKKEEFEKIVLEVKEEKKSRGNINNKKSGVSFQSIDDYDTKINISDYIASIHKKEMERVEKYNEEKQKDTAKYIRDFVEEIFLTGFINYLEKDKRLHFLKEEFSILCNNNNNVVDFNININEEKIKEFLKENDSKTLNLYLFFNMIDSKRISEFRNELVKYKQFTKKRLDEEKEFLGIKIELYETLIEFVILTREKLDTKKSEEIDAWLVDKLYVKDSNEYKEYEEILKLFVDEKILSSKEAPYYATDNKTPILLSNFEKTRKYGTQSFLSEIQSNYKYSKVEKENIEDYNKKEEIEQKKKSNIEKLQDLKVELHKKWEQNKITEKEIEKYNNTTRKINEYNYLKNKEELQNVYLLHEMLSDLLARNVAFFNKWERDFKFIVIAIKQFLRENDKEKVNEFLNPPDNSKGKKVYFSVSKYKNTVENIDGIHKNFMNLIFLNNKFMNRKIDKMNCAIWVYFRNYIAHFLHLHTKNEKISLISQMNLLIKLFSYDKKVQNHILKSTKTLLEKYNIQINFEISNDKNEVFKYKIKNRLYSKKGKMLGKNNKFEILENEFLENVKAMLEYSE
# Method: Purification of LwaCas13a protein. LwaCas13a from Leptotrichia wadeii has a specific preference for collaterally cleaving poly-uracil ssRNA oligos and was used for various experiments in these examples. LwaCas13a was purified as follows. The expression plasmid (pC013) encoded LwaCas13a with an N-terminal His-tag, followed by twinstrep and SUMO tags. The plasmid was transformed into BL21(DE3) Rosetta Escherichia coli cells. 20 mL bacterial culture was grown overnight in Luria broth (LB) medium supplemented with 100 μM carbenicillin that was used to inoculate 1 L cultures in LB medium. The culture was shaken at 37° C. until the OD600 reached around 0.6. The culture was cooled down to approximately 20° C. in a cold water bath and protein expression was induced by adding 0.5 mM Isopropyl beta-D-1-thiogalactopyronoside (IPTG). The culture was grown in a 20° C. shaker for 16 hours. […] Protein concentration was determined using the absorbance at 280 nm and an extinction coefficient of 119800 M^−1 cm^−1; 1.5 mL of 47 μM protein was obtained from 2 liters of culture. […]
# In other methods, SHERLOCK reactions were performed with purified target RNA as input, the concentration of the components, order of addition of components and measurement of fluorescence was carried out the same way as in the SPRINT reactions. […]
# crcB fluoride riboswitch = settings: in-line probing; cited from earlier work
compound,measurement,setting,value
"[F-].[Na+] [fluoride, sodium fluoride]",fluoride concentration at which Cas13a activity sharply dropped,Cas13a,around 600 μM
same,Kd,crcB fluoride riboswitch,~60 µM
